Assay type in all cases: biochemical
The target in experiment [1] is T1, cathepsin K (Homo sapiens, UniProt P43235).
T1 sequence (P43235 115-329): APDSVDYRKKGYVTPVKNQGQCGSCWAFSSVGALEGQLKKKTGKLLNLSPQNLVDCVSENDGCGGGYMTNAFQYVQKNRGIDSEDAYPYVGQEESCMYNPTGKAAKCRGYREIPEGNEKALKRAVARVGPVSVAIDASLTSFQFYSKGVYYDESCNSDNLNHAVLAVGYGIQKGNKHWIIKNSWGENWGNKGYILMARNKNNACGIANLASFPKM
The experiment can be described thus: Measurement of cathepsin K inhibitory activity. The conditions noted are these: Dixon plot, pH 5.5, 37° C. The method, then:
(i) Measurement of Cathepsin K Inhibitory Activity
Cathepsin K enzyme reaction buffer (50 mmol/L 2-(N-morpholino)ethanesulfonate, 2 mmol/L ethylenediamine tetraacetate (EDTA) and 4 mmol/L dithiothreitol (DTT) were mixed to adjust to pH 5.5) (65 μL), cysteine protease inhibitor solution (5 μL) of several concentrations, synthesized substrate (t-butyloxycarbonyl-L-alanyl-glycyl-L-prolyl-L-arginine-4-me thyl-chromanyl-7-amide) solution (20 μL) of several concentrations and cathepsin K enzyme solution (10 μL) were mixed and the increase of fluorescence intensity when reacted at 37° C. was measured (λex(excitation wavelength)355 nm, λem (fluorescence wavelength) 460 nm). As to the substrate and the compound of the present invention, enzyme reactions were carried out in combination of several appropriate concentrations, Dixon plotting was prepared, to define the absolute value of X-coordinate of the intersection point of the graph as Ki value.

Experiment [2] concerns the target cathepsin B (Homo sapiens, UniProt P07858). Put plainly: Measurement of cathepsin B inhibitory activity. The method, then: (ii) Measurement of Cathepsin B Inhibitory Activity
Synthesized substrate of several concentrations (carbobenzoxy-L-arginyl-L-arginine-4-methyl-chromanyl-7-amide or carbobenzoxy-L-phenylalanyl-L-arginine-4-methyl-chromanyl-7-amide) solution (10 μL), cysteine protease inhibitor solution of several concentrations (10 μL), cathepsin B enzyme reaction buffer (mixture of 400 mmol/L in acetic acid, 4 mmol/L EDTA, 8 mmol/L DDT to adjust to pH 5.5) 70 μL and cathepsin B enzyme solution 10 μL were mixed and the increase of fluorescence intensity was measured (λex=355 nm, λem=460 nm) when reacted at 37° C.

The target of experiment [3] is cathepsin S (Homo sapiens, UniProt P25774). Put plainly: Measurement of cathepsin S inhibitory activity. The protocol:
(iii) Measurement of Cathepsin S Inhibitory Activity
Synthesized substrate of several concentrations (carbobenzoxy-L-leucyl-L-leucyl-L-arguinine-4-methyl-chroman yl-7-amide) solution (10 μL), cysteine protease inhibitor solution (5 μL) of several concentrations, cathepsin S enzyme reaction buffer (100 mmol/L sodium phosphate, 2 mmol/L EDTA, 2 mmol/L DTT were mixed to adjust to pH 6.5) (75 μL) and cathepsin S enzyme solution (10 μL) were mixed and the increase of fluorescence intensity was measured (λex=355 nm, λem=460 nm) when reacted at 37° C.

The target of experiment [4] is cathepsin L (Homo sapiens, UniProt P07711). The experiment can be described thus: Measurement of cathepsin L inhibitory activity. The method, then: (iv) Measurement of Cathepsin L Inhibitory Activity
Synthesized substrate of several concentrations (carbobenzoxy-L-phenylalanyl-L-arguine-4-methyl-chromanyl-7-amide or L-prolyl-L-phenylalanyl-L-arguinine-4-methyl-chromanyl-7-amide) solution (5 μL), cysteine protease inhibitor solution (5 μL) of several concentrations, cathepsin L enzyme reaction buffer (400 mmol/L acetic acid, 4 mmol/L EDTA, 8 mmol/L DTT were mixed to adjust to pH 5.5) 80 μL and cathepsin L enzyme solution (10 μL) were mixed and the increase of fluorescence intensity was measured (λex=355 nm, λem=460 nm) when reacted at 37° C.

Molecules are shown by their SMILES.

Chain of cathepsin L (P07711 114-333, species assumed): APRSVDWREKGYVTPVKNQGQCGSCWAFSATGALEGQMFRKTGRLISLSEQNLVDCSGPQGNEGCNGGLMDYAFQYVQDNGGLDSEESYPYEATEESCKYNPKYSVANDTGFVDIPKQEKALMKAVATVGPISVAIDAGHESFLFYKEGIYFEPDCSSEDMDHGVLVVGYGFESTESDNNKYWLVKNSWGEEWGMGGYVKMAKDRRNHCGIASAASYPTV
Chain of cathepsin S (P25774 115-331, species assumed): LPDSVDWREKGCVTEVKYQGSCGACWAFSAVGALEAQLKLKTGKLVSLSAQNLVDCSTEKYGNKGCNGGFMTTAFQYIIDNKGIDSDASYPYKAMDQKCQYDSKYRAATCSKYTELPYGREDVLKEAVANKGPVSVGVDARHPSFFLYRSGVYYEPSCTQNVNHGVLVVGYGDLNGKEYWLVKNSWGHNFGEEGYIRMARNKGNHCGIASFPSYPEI

Broadly, the Ki is a measure of affinity in units of concentration, obtained from inhibition or displacement. For orientation: inhibition means the percentage by which the read-out fell short of the control. A higher inhibition goes with a response far below the control. In the case of `CC(C)C[C@H](NC(=O)OCc1ccccc1)C(=O)N[C@@H](CC(C)C)C(=O)c1n[nH]c(=O)o1` [Example 1 (1), (2S)-N-[(2S)-4-methyl-1-oxo-1-(2-oxo-1,3,4-oxadiazolin-5-yl)-2-pentyl]-4-methyl-2-(benzyloxycarbonylamino)pentanamide], in experiment [1], the Ki was found to be 13 nM. For the same compound, the inhibition at 1 µM in experiment [2] was 97%; in experiment [3], 99%; in experiment [4] it was 100%.
In the case of `CC(C)C[C@H](NC(=O)[C@@H]1CCCC[C@@H]1NC(=O)c1ccccc1)C(=O)c1n[nH]c(=O)o1` [example 1], the Ki in experiment [1] worked out at 86 nM.

Values taken from patent US6797720B2, “1,3,4-oxadiazoline derivative and an agent comprising its derivative as active ingredient” (ONO Pharmaceutical Co., Ltd., priority 1999, dated 2004).
